This note sets out measurements from patent US6465501B2, “Azolidines as β3 adrenergic receptor agonists” (Wyeth, priority 2000, dated 2002).

Molecules are shown by their SMILES. Like-named read-outs stand apart in the source and are kept apart here.

The target in one series is T1, human β3-AR (Homo sapiens, UniProt P13945).
T1 construct: Full length β3 AR clones (402 amino acids) containing the last 6 amino acids of hβ3; expressed in transfected cells; host or cells: CHO (Chinese hamster ovary) cells
In words: cAMP accumulation (SPA) in CHO cells transfected with human β3 adrenergic receptor. The format is cell-based. As to conditions: for Emax: read-out: IA(β3). The protocol: The ability of compounds of this invention to treat or inhibit disorders related to insulin resistance or hyperglycemia was established with representative compounds of this invention in the following standard pharmacological test procedures, which measured the binding selectivity to the β1, β2, and β3 adrenergic receptors. Binding to the receptors was measured in Chinese Hamster ovary (CHO) cells that were transfected with adrenergic receptors. The following briefly summarizes the procedures used and results obtained.
Cloning of Human β3-AR Genomic DNA: cDNA was constructed by ligating four polymerase chain reaction (PCR) products using the following primers: an ATG-Narl fragment, sense primer 5′-[…]3′ and anti-sense primer 5′[…]3′; a Narl-Accl fragment, 5′[…]3′ as sense and 5′[…]3′ as anti-sense primer; an Accli-Styl fragment, sense primer 5′[…]3′ and anti-sense primer 5′[…]3′ and a Styl-TAG fragment, with sense primer 5′[…]3′ and anti-sense primer 5′[…]3′. The corresponding primer sequences are described in Mantzoros, C. S., etal, Diabetes 45: 909-914 (1996). The four fragments are ligated into a pUC 18 plasmid (Gibco-BRL) and sequenced. Full length β3 AR clones (402 amino acids) containing the last 6 amino acids of hβ3 . . . AR are prepared with the β3-βARpcDNA3 from ATTC.
Binding Procedure: Clones expressing receptor levels of 70 to 110 fmoles/mg protein were used in the test procedures. CHO cells were grown in 24-well tissue culture plates in Dulbecco's Modified Eagle Media with 10% fetal bovine serum, MEM non-essential amino acids, Penicillin-Streptompycin and Geneticin. On the day of test procedure, growth medium was replaced with preincubation media (Dulbecco's Modified Eagle Media and incubated for 30 minutes at 37° C. Preincubation medium was replaced with 0.2 ml treatment medium containing DMEM media containing 250 μM IBMX (isobutyl-1-methylxantine) plus 1 mM ascorbic acid with test compound dissolved in DMSO. Test compounds were tested over a concentration range of 10^−9 M to 10^−5 M for β3 cells and 10^″8 to 10^″4 M for β1 and β2 transfected cells. Isoproterenol (10^−5 M) was used as an internal standard for comparison of activity. Cells were incubated at 37° C. on a rocker for 30 min with the β3 cells and 15 min for β1 and β2 cells. Incubation was stopped with the addition of 0.2 N HCI and neutralized with 2.5 N NaOH. The plates, containing the cells and neutralized media, were stored at −20 degrees celsius until ready to test for cAMP using the SPA test kit (Amersham).
Data Analysis and Results: Data collected from the SPA test procedure were analyzed as percent of the maximal isoproterenol response at 10^−5 M. Activity curves were plotted using the SAS statistical and graphics software. EC50 values were generated for each compound and the maximal response (IA) developed for each compound is compared to the maximal response of isoproternol at 10^−5 M from the following formula: [formula]
A general note: Changes in cAMP serve as a functional read-out for many G protein-coupled receptors.

[1] abbreviates: CHO cells expressing human β3-AR, cAMP, 30 min at 37° C., 10^-9 M to 10^-5 M, read-out: EC50(β3).
[2] abbreviates: maximal response compared to the maximal response of isoproterenol at 10^-5 M, CHO cells expressing human β3-AR.

T1 sequence (P13945 whole entry): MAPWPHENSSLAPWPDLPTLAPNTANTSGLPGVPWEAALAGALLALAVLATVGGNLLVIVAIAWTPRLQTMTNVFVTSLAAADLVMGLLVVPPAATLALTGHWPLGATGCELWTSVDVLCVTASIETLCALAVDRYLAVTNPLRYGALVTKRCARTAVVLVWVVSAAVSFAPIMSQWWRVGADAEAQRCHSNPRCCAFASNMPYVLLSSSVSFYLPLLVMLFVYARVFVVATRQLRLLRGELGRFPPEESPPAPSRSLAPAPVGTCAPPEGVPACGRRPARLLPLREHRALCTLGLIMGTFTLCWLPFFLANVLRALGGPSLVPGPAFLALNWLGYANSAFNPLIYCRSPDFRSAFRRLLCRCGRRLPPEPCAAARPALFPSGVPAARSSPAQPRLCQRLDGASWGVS

Turning to `O=C1NC(=O)C(Nc2ccc(CCNC[C@H](O)COc3ccc(OCc4ccccc4)cc3)cc2)S1` (stereo partly shown) [Example 4, 5-{4-[2-({(2 S)-3-[4-(Benzyloxy)phenoxy]-2-hydroxypropyl}amino)ethyl]anilino}-1,3-thiazolidine-2,4-dione], the melting point turned out to be 152 °C. For the same molecule, at human β3-AR (setting [1]), the EC50 stood at 1 nM. In addition, at human β3-AR (setting [2]), the Emax came to 85%.
The like results for `O=C1NC(=O)C(Nc2ccc(CCNC[C@H](O)COc3ccc(O)cc3)cc2)S1` (stereo partly shown) [Example 5, 5-[4-(2-{[(2 S)-2-Hydroxy-3-(4-hydroxyphenoxy)propyl]amino}ethyl)anilino]-1,3-thiazolidine-2,4-dione] were, in that order, 165 °C, 20 nM and 99%.
Molecule `O=C1NC(=O)C(Nc2ccc(CCNC[C@H](O)c3cccc(Cl)c3)cc2)S1` (stereo partly shown) [Example 6, 5-[4-(2-{[(2 R)-2-(3-Chlorophenyl)-2-hydroxy-ethyl]amino}ethyl)anilino]-1,3-thiazolidine-2,4-dione] showed a melting point of 162 °C. For the same molecule, at human β3-AR (setting [1]), the EC50 came to 7 nM. For the same molecule, on human β3-AR (setting [2]), the Emax stood at 83%.
With `O=C1NC(=O)C(Nc2ccc(CCNC[C@H](O)c3ccccc3)cc2)S1` (stereo partly shown) [Example 7, 5-[4-(2-{[(2 R)-2-Hydroxy-2-phenylethyl]amino}ethyl)anilino]-1,3-thiazolidine-2,4-dione], on human β3-AR (setting [1]), the EC50 was determined as 83 nM. In addition, the Emax at human β3-AR (setting [2]) is 94%.
Regarding `O=C1NC(=O)C(Nc2ccc(CCNC[C@H](O)COc3ccc(F)cc3)cc2)S1` (stereo partly shown) [Example 8, 5-[4-(2-{[(2 S)-3-(4-Fluorophenoxy)-2-hydroxypropyl]amino}ethyl)anilino]-1,3-thiazolidine-2,4-dione], the concentration for a half-maximal effect (EC50) on human β3-AR (setting [1]) was 14 nM. In addition, at human β3-AR (setting [2]), the Emax was determined as 66%.
The like results for `O=C1NC(=O)C(Nc2ccc(CCNC[C@H](O)COc3ccccc3)cc2)S1` (stereo partly shown) [Example 9, 5-[4-(2-{[(2 S)-2-Hydroxy-3-phenoxypropyl]amino}ethyl)anilino]-1,3-thiazolidine-2,4-dione] were, in that order, 0.9 nM and 98%.
In the case of `O=C1NC(=O)C(Nc2ccc(CCNC[C@H](O)COc3cccc(O)c3)cc2)S1` (stereo partly shown) [Example 12, 5-[4-(2-{[(2 S)-2-Hydroxy-3-(3-hydroxyphenoxy)propyl]amino}ethyl)anilino]-1,3-thiazolidine-2,4-dione], the EC50 at human β3-AR (setting [1]) turned out to be 3 nM. Further, the Emax on human β3-AR (setting [2]) was 117%.
Regarding `O=C1NC(=O)C(Nc2ccc(CCNC[C@H](O)COc3cccc4[nH]c5ccccc5c34)cc2)S1` (stereo partly shown) [Example 13, 5-[4-(2-{[(2 S)-3-(9 H-Carbazol-4-yloxy)-2-hydroxypropyl]amino}ethyl)anilino]-1 ,3-thiazolidine-2,4-dione], at human β3-AR (setting [1]), the EC50 is 12 nM. On human β3-AR (setting [2]), the Emax was determined as 104%.
In the case of `CS(=O)(=O)Nc1cc([C@H](O)CNCCc2ccc(NC3SC(=O)NC3=O)cc2)ccc1O` (stereo partly shown) [Example 14, N{5-[(1 S)-2-({4-[(2,4-Dioxo-1,3-thiazolidin-5-yl)amino]phenethyl}amino)-1-hydroxyethyl]-2-hydroxyphenyl}methanesulfonamide], the EC50 at human β3-AR (setting [1]) is 9 nM. In addition, the Emax at human β3-AR (setting [2]) is 111%.
`CN(c1ccc(CCNC[C@H](O)COc2ccccc2)cc1)C1SC(=O)NC1=O` (stereo partly shown) [Example 17, 5-[4-(2-{[(2 S)-2-Hydroxy-3-phenoxypropyl]amino}ethyl)(methyl)anilino]-1,3-thiazolidine-2,4-dione.]: on human β3-AR (setting [1]), the EC50 stood at 17 nM. In addition, at human β3-AR (setting [2]), the Emax was found to be 68%.
Turning to `CC(Cc1ccc(NC2SC(=O)NC2=O)cc1)NC[C@H](O)c1cccc(Cl)c1` (stereo partly shown) [Example 18, 5-[4-(2-{[(2 R)-2-(3-Chlorophenyl)-2-hydroxyethyl]amino}propyl)anilino]-1,3-thiazolidine-2,4-dione], the concentration giving a half-maximal response (EC50) at human β3-AR is 9 nM. In addition, on human β3-AR (CHO), the Emax was determined as 89%.
Regarding `O=C1NC(=O)C(Nc2ccc(CCNC[C@@H](O)COc3cccc4[nH]c(=O)[nH]c34)cc2)S1` (stereo partly shown) [Example 19, 5-{4-[2-({(2 R)-2-Hydroxy-3-[(2-oxo-2,3-di hydro-1 H-benzimidazol-4-yl)oxy]propyl}amino)ethyl]anilino}-1,3-thiazolidine-2,4-dione], the EC50 at human β3-AR (setting [1]) is 20 nM. Moreover, the Emax at human β3-AR (setting [2]) worked out at 71%.
As to `O=C1NC(=O)C(N(Cc2ccc(Br)cc2)c2ccc(CCNC[C@H](O)COc3ccccc3)cc2)S1` (stereo partly shown) [Example 29, 5-((4-Bromo-benzyl)-{4-[2-((2 S)-2-hydroxy-3-phenoxy-propylamino)-ethyl]-phenyl}-amino)-thiazolidine-2,4-dione], the EC50 on human β3-AR (setting [1]) was 3 nM. In addition, the Emax at human β3-AR (setting [2]) worked out at 109%.
The like results for `O=C1NC(=O)C(Nc2ccc(CCNC[C@H](O)c3cccnc3)cc2)S1` (stereo partly shown) [Example 31, 5-{4-[2-((2 R)-2-Hydroxy-2-pyridin-3-yl-ethylamino)-ethyl]-phenylamino}-thiazolidine-2,4-dione] were, in that order, 96 nM and 88%.

What is called EC50 is the concentration that produces a half-maximal response. One may read the melting point as the temperature, or range, at which the solid turns liquid.
